{"source": "patent US11059830B2", "about": "“Compounds that participate in cooperative binding and uses thereof” (Revolution Medicines, Inc., priority 2015, dated 2021)", "key": {"FKBP12 [1]": {"molecular_target": "T1, FKBP12 (Homo sapiens (Human), UniProt P62942)", "T1 sequence (P62942 whole entry)": "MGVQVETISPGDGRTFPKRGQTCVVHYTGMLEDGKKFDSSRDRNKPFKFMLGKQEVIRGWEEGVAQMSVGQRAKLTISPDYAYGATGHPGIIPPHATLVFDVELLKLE", "test": "AlphaLISA FKBP12 binding: inhibition of binding of biotinylated FK506 to FLAG tagged FKBP12", "settings": "read-out: Binding affinity to FKBP12 (by displacement of FK506)", "text": "The binding of compounds of the invention to FKBP12 can be determined using the following protocol.\nThis protocol utilizes Perkin Elmers AlphaLISA technology platform to detect FKBP binders by measuring the inhibition of binding of biotinylated FK506 to FLAG tagged FKBP12.\n10×TBST Buffer (Boston BioProducts IBB-181), Biotinylated FK506 (in-house), FLAG tagged FKBP (in-house); anti-FLAG Donor beads (Perkin Elmer AS103) and Streptavidin Acceptor beads (Perkin Elmer AL125); Compounds in DMSO (in-house), FK506.\nExperimental Protocol/Description of Assay: Add 20 uL of 12.5 nM FKBP-FLAG working stock to each well of the 96-well plate. Add 1 uL of test compound (100% DMSO) to each well of the plate using the Janus MTD head and P20 tips (except control wells). Add 1 uL of DMSO to negative control wells and 1 uL of 50 uM FK506 solution to positive control wells. In the dark, add 20 uL of combined Donor/Acceptor beads to each well. Incubate in the dark for 30 minutes at room temperature. In the dark, add 10 uL of 5 nM biotinylated FK506 working stock to each well. Incubate in the dark for 60 minutes at room temperature. Protect plate from light until reading on Biotek Synergy2 Plate Reader; Alphalisa 96-well protocol (680 excitation/615 emission)."}, "FKBP12 [2]": {"molecular_target": "T1, FKBP12", "test": "SPR binding of compound (analyte) to immobilized FKBP12 (Example 7)", "settings": "25° C., 12×HIS tagged FKBP12 immobilized on NTA chip; read-out: SPR affinity to FKBP12: KD", "procedure": "This protocol utilizes Surface Plasmon Resonance (SPR) as a method to determine kinetics (KD, Ka, Kd) for the binding of compound (analyte) to immobilized FKBP12 (ligand).\nCompound in 100% DMSO (in-house), 10×HBS-P+ buffer (GE Healthcare BR-1006-71), Assay buffer (1×HBS-P+ buffer, 1% DMSO), 12×HIS tagged FKBP12 (in-house).\n(§1) Experiments are performed at 25° C. Stock solution of 12×HIS tagged FKBP12 is diluted to 100 nM in assay buffer (1% DMSO final). Approximately 500-600 RU of FKBP12 is immobilized on one of two flow cells of an activated NTA chip. The second flow cell is not activated as a reference for non-specific interaction of the analyte to the sensor chip. Various concentrations of compound (1 nM-1 μM range), serially diluted into the same assay buffer (1% DMSO final), are injected onto the FKBP12 surface and reference surface at a flow rate of 10 μl/min. The surface is regenerated between analyte injections with 350 mM EDTA.\n(§2) The BiaEvaluation software program is used for data fitting. All data is reference subtracted against both the reference flow cell and a buffer injection. For kinetic analyses, data is locally fit to a 1:1 interaction model."}, "HeLa-FKBP12 cells": {"system": "HeLa-FKBP12 cells", "test": "Biosensor cell permeability assay (FKBP destabilizing mutant, whole cell)", "format": "cell-based", "settings": "72 hrs", "procedure": "Cell permeability of compounds can be determined using the following protocol.\nThis protocol utilizes a modified FKBP or cyclophilin destabilizing mutant to determine the bioactivity of FKBP binding compounds or cyclophilin binding compounds in whole cell assay.\nDMEM, DMEM without Phenol Red, 10% FBS, 1× Sodium Pyruvate, 1× Glutamax. Add 125 ul of media with compound per well.\nExperimental Protocol/Description of Assay: Plate HeLa-FKBP12 cells (for FKBP binding compounds) or HeLa-CyclophilinA cells (for cyclophilin binding compounds) and seed overnight at 5k/well (approximately −18 hrs.). Using a multi-channel pipet, take out the old media and add ˜125 ul of new media with compounds. Compounds are diluted using DMEM without Phenol Red, 10% FBS, 1× Sodium Pyruvate, lx Glutamax. Add 125 ul of media with compound per well. Cells are treated with compounds at concentration: 30, 10, 3.33, 1.11, 0.37, 0.12, 0.04 and 0.013 uM. Time points are taken at 72 hrs and plate read using plate reader with excitation/emission: 575/620.\nCell binding/permeability is calculated in fold-change (Total RFU of treated samples/total RFU of DMSO treated samples or total RFU above background (Total RFU minus total RFU of DMSO treated samples)."}, "FKBP12 [3]": {"molecular_target": "T1, FKBP12", "test": "SPR kinetics of Compound 2 and Compound 6 binding to immobilized FKBP12 (Example 8)", "settings": "compound to immobilized FKBP12, 25° C.", "procedure": "This protocol utilizes Surface Plasmon Resonance (SPR) as a method to determine kinetics (KD, Ka, Kd) for the binding of Compound 2 and Compound 6 (analyte) to immobilized FKBP12 (ligand).\nCompound 2 and Compound 6 in 100% DMSO (in-house), 10×HBS-P+ buffer (GE Healthcare BR-1006-71), Assay buffer (1×HBS-P+ buffer, 1% DMSO), 12×HIS tagged FKBP12 (in-house).\nas §1, with “Compound 2 or Compound 6” for “compound”\nas §2"}, "[4]": {"molecular_target": "CEP25011.4 (residues 2134-2231) (Homo sapiens (Human), UniProt P62942+Q9BV73)", "sequence (Q9BV73 2134-2231)": "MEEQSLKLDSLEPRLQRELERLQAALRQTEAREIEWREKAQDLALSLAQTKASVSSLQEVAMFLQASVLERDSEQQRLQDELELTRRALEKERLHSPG", "sequence (P62942 whole entry, the tested form may be a part)": "as the sequence (P62942 whole entry) above", "test": "ITC binding of FKBP12-compound binary complex to CEP250", "procedure": "(§3) This protocol utilizes Isothermal Titration Calorimetry (ITC) to directly measure the heat change associated with binding of FKBP12-Compound 2 and FKBP12-Compound 6 binary complexes to CEP250. Measurement of the heat change allows accurate determination of association constants (Ka), reaction stoichiometry (N), and the change in binding enthalpy (ΔH).\n(§4) Compound 2 and Compound 6 in 100% DMSO (in-house), Protein Buffer (10 mM HEPES, pH 7.5, 75 mM NaCl, 0.5 mM TCEP), assay buffer (protein buffer+1% DMSO), FKBP12 (in-house), CEP25029.4 (residues 1982-2231) and CEP25011.4 (residues 2134-2231) (in-house).\n(§5) MicroCal™ ITC200 (GE Healthcare) Experimental Protocol: FKBP12 stock solution was diluted to 10 μM in assay buffer (1% DMSO final). Compound was added to FKBP12 to 20 μM (1% DMSO final), and binary complex was filled into the reaction cell of the ITC device after 5-10 min pre-incubation time. CEP250 protein stocks were diluted to 50 μM in assay buffer and supplemented with 20 μM compound (1% DMSO final) before being filled into the injection syringe. A control experiment in the absence of compound was also run to determine the heat associated with operational artifacts and the dilution of titrant as it was injected from the syringe into the reaction cell."}, "[5]": {"molecular_target": "CEP25029.4 (residues 1982-2231) (Homo sapiens (Human), UniProt P62942+Q9BV73)", "sequence (Q9BV73 1982-2231)": "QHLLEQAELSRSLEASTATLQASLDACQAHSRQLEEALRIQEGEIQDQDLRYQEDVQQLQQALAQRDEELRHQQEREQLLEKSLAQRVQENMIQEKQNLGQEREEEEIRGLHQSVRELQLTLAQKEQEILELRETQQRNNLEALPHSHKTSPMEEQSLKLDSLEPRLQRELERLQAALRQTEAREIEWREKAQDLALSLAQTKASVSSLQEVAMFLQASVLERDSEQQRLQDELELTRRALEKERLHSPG", "sequence (P62942 whole entry, the tested form may be a part)": "as the sequence (P62942 whole entry) above", "test": "ITC binding of FKBP12-compound binary complex to CEP250", "procedure": "as §3, §4, §5"}}, "data": [{"smiles": "CC[C@H](Cc1ccccc1)[C@@H]1/C=C/C/C=C/C[C@@H](C)[C@H](O)[C@@H](C)[C@@H]2CC[C@@H](C)C(=O)C(O)(O2)C(=O)N2CCC[C@H]2C(=O)O1", "note": "[Compound 4]", "values": [{"measurement": "IC50", "setting": "FKBP12 [1]", "value": 4.8, "unit": "nM"}, {"measurement": "Kd", "setting": "FKBP12 [2]", "value": 23.1, "unit": "nM"}]}, {"smiles": "CC[C@H](Cc1ccccc1)[C@@H]1CCCCCC(=O)[C@@H](C)[C@H](O)[C@@H](C)[C@@H]2CC[C@@H](C)C(O)(O2)C(=O)C(=O)N2CCCC[C@H]2C(=O)O1", "note": "[Compound 10, (S)-1-(2-((2R,3R,6S)-6-((2R,3R,4S,6E,9E,11R,12R)-12-benzyl-3,11-dihydroxy-4-methyl-5-oxotetradeca-6,9-dien-2-yl)-2-hydroxy-3-methyltetrahydro-2H-pyran-2-yl)-2-oxoacetyl)piperidine-2-carboxylic acid C-11 lactone]", "values": [{"measurement": "IC50", "setting": "FKBP12 [1]", "value": 0.21, "unit": "nM"}]}, {"smiles": "CCC(Cc1ccccc1)C1/C=C/C/C=C/CC(C)C(O)C(C)C2CCC(C)C(O)(CC(=O)N3CCCCC3C(=O)O1)O2", "note": "(stereo not shown) [Compound 1]", "values": [{"measurement": "IC50", "setting": "FKBP12 [1]", "value": 355, "unit": "nM"}, {"measurement": "Kd", "setting": "FKBP12 [2]", "value": 71.5, "unit": "nM"}]}, {"smiles": "CC[C@H](Cc1cccc(O)c1)[C@@H]1/C=C/C/C=C/C[C@@H](C)[C@H](O)[C@@H](C)[C@@H]2CC[C@@H](C)[C@@](O)(O2)C(=O)C(=O)N2CCCC[C@H]2C(=O)O1", "note": "[Compound 8]", "values": [{"measurement": "IC50", "setting": "FKBP12 [1]", "value": 1.1, "unit": "nM"}, {"measurement": "IC50", "setting": "HeLa-FKBP12 cells", "value": "< 1000", "unit": "nM"}]}, {"smiles": "CC[C@H](Cc1ccccc1)[C@@H]1/C=C/C/C=C/C[C@@H](C)C(=O)[C@@H](C)[C@@H]2CC[C@@H](C)[C@@](O)(O2)C(=O)C(=O)N2CCCC[C@H]2C(=O)O1", "note": "[Compound 9]", "values": [{"measurement": "IC50", "setting": "FKBP12 [1]", "value": 785, "unit": "nM"}, {"measurement": "IC50", "setting": "HeLa-FKBP12 cells", "value": "> 1000", "unit": "nM"}]}, {"smiles": "CC[C@H](Cc1ccccc1)[C@@H]1/C=C/C=C/CC(=O)[C@@H](C)[C@H](O)[C@@H](C)[C@@H]2CC[C@@H](C)C(=O)C(O)(O2)C(=O)N2CCCC[C@H]2C(=O)O1", "note": "[Compound 5]", "values": [{"measurement": "IC50", "setting": "FKBP12 [1]", "value": 18.8, "unit": "nM"}, {"measurement": "Kd", "setting": "FKBP12 [2]", "value": 7, "unit": "nM"}]}, {"smiles": "CC[C@H](Cc1cccc(O)c1)[C@@H]1/C=C/C/C=C/C[C@@H](C)[C@H](O)[C@@H](C)[C@@H]2CC[C@@H](C)C(=O)[C@@](O)(O2)C(=O)N2CCCC[C@H]2C(=O)O1", "note": "[Compound 7]", "values": [{"measurement": "IC50", "setting": "FKBP12 [1]", "value": 0.95, "unit": "nM"}, {"measurement": "IC50", "setting": "HeLa-FKBP12 cells", "value": "< 1000", "unit": "nM"}]}, {"smiles": "CC[C@H](Cc1ccccc1)[C@@H]1CCCCCC[C@@H](C)[C@H](O)[C@@H](C)[C@@H]2CC[C@@H](C)C(=O)C(O)(O2)C(=O)N2CCCC[C@H]2C(=O)O1", "note": "[Compound 6, (2S)-1-((4R,7S)-7-((2R,3S,4R,11 S,12R)-12-benzyl-3,11-dihydroxy-4-methyltetradecan-2-yl)-2-hydroxy-4-methyl-3-oxooxepane-2-carbonyl)piperidine-2-carboxylic acid C-11 lactone]", "values": [{"measurement": "koff", "setting": "FKBP12 [3]", "value": 0.0088, "unit": "s⁻¹"}, {"measurement": "kon", "setting": "FKBP12 [3]; read-out: Ka", "value": 567000, "unit": "M⁻¹ s⁻¹"}, {"measurement": "Kd", "setting": "[4]", "value": 80, "unit": "nM"}, {"measurement": "ΔH", "setting": "[4]; ITC, FKBP12 10 μM in cell, CEP25011.4 68 μM in syringe, ligand 20 μM, 298 K", "value": -11.42, "unit": "kcal/mol"}, {"measurement": "ΔG", "setting": "[4]; ITC, FKBP12 10 μM, CEP25011.4 68 μM, ligand 20 μM, 298 K, ΔG = −RT ln Ka", "value": -9.646, "unit": "kcal/mol"}, {"measurement": "−T*ΔS", "setting": "[4]; ITC, FKBP12 10 μM, CEP25011.4 68 μM, ligand 20 μM, 298 K, −TΔS = ΔG − ΔH", "value": 1.77, "unit": "kcal/mol"}, {"measurement": "Kd", "setting": "[5]", "value": 360, "unit": "nM"}, {"measurement": "ΔH", "setting": "[5]; ITC, FKBP12 10 μM in cell, CEP25029.4 118 μM in syringe, ligand 20 μM, 298 K", "value": -13.98, "unit": "kcal/mol"}, {"measurement": "ΔG", "setting": "[5]; ITC, FKBP12 10 μM, CEP25029.4 118 μM, ligand 20 μM, 298 K, ΔG = −RT ln Ka", "value": -8.781, "unit": "kcal/mol"}, {"measurement": "−T*ΔS", "setting": "[5]; ITC, FKBP12 10 μM, CEP25029.4 118 μM, ligand 20 μM, 298 K, −TΔS = ΔG − ΔH", "value": 5.194, "unit": "kcal/mol"}]}, {"smiles": "CC[C@H](Cc1ccccc1)[C@@H]1/C=C/C/C=C/C(=O)[C@@H](C)[C@H](O)[C@@H](C)[C@@H]2CC[C@@H](C)[C@@](O)(O2)C(=O)C(=O)N2CCCC[C@H]2C(=O)O1", "note": "[Compound 3]", "values": [{"measurement": "IC50", "setting": "FKBP12 [1]", "value": 0.34, "unit": "nM"}, {"measurement": "Kd", "setting": "FKBP12 [2]", "value": 1.3, "unit": "nM"}]}]}
